Structures can show the parent of a compound that is named as a salt.
System: AMPA receptors
Test: electrophysiological assay, AMPA receptors expressed in oocyte
Format: cell-based, rat
Conditions: inhibiting or modulating AMPA receptors expressed in oocyte; read-out: AMPA IC50
From the text: The compounds of the present invention may be assessed by electrophysiological assays in Xenopus oocytes expressing rat whole brain poly(A)^+ RNA (see Keana et. al. J. Med. Chem. 38: 4367-4379 (1995)) or in cultured rat cortical neurons (see Woodward et. al. Mol. Pharmacol. 47: 568-581 (1995)) for AMPA receptor activity. Compounds which are useful for treating or preventing the adverse consequences of stroke, hypoglycemia, neurodegenerative disorders, anxiety, epilepsy or psychosis, or which induce analgesia, will inhibit the currents across the membranes of the oocyte expressing AMPA receptors. However, if the compound potentiates currents across the oocyte membrane, then the compound is expected to be useful in enhancing cognition or treating schizophrenia or neurodegenerative disease such as Parkinson's Disease.
The potency of antagonism or potentiation for these compounds were determined by electrophysiological assay. Potencies of selective compounds described above in inhibiting or modulating AMPA receptors expressed in oocyte and their anticonvulsant activity against maximal electroshock induced convulsion are shown in Table 1.

IC50 | Compound
4 µM | OCCOc1nc(-c2ccc3c(c2)OCO3)c2cc3c(cc2n1)OCO3 [2-[(2-Hydroxy)ethoxy]-6,7-methylenedioxy-4-(3,4-methylenedioxyphenyl)quinazoline]
5 µM | CCn1c(=O)nc(-c2ccc3ccccc3c2)c2cc3c(cc21)OCO3 [1-Ethyl-6,7-methylenedioxy-4-(2-naphthyl)quinazolin-2(1H)-one]
7 µM | ICc1nc(-c2ccc3c(c2)OCO3)c2cc3c(cc2n1)OCO3 [2-Iodomethyl-6,7-methylenedioxy-4-(3,4-methylenedioxyphenyl)quinazoline]
1.5 µM | O=c1nc(-c2ccc3c(c2)OCO3)c2cc3c(cc2n1CCO)OCO3 [1-[(2-Hydroxy)ethyl]-6,7-methylenedioxy-4-(3,4-methylenedioxyphenyl)quinazoline-2-one]
3 µM | CN(C)CCCn1c(=O)nc(-c2ccc3c(c2)OCO3)c2cc3c(cc21)OCO3 [1-(3-Dimethylaminopropyl)-6,7-methylenedioxy-4-(3,4-methlenedioxyphenyl)quinazoline-2-one]
4 µM | O=c1nc(-c2ccc3c(c2)OCO3)c2cc3c(cc2n1CCN1CCOCC1)OCO3 [4-(4,4-methylenedioxyphenyl)-6,7-methylenedioxy-1-(2-morpholinylethyl)-quinazolin-2(1H)-one]
6 µM | Clc1nc(-c2ccc3c(c2)OCO3)c2cc3c(cc2n1)OCO3 [2-Chloro-4-(3,4-methylenedioxyphenyl)-6,7-methylendioxyquinazoline]
6 µM | O=c1nc(-c2ccc3c(c2)OCO3)c2cc3c(cc2n1CC1CC1)OCO3 [1-cyclopropylmethyl-6,7-methylenedioxy-4-(3,4-methylenedioxyphenyl) quinazolin-2(1H)-one]
4 µM | Cc1nc2cc3c(cc2c(-c2ccc4c(c2)OCO4)[n+]1[O-])OCO3 [2-Methyl-6,7-methylenedioxy-4-(3,4-methylenedioxyphenyl)quinazoline 3-oxide]
6 µM | [O-][n+]1c(Cn2ccnc2)nc2ccc3c(c2c1-c1ccc2c(c1)OCO2)OCO3 [2-(1-Imidazolyl)methyl-5,6-methylenedioxy-4-(3,4-methylenedioxyphenyl)quinazoline 3-oxide hydrochloride]
7 µM | [O-][n+]1c(CN2CCCC2)nc2cc3c(cc2c1-c1ccc2c(c1)OCO2)OCO3 [2-(Pyrrolidin-1-yl)methyl-6,7-methylenedioxy-4-(3,4-methylenedioxyphenyl)quinazoline-3-oxide]
6 µM | O=c1c2cc3c(cc2c(-c2ccc4c(c2)OCO4)nn1CCn1ccnc1)OCO3 [2-[2-(1-Imidazolyl)ethyl]-4-(3,4-methylenedioxyphenyl)-6,7-methylenedioxy-1(2H)-phthalazinone]
6 µM | OCc1nc(-c2ccc3c(c2)OCO3)c2cc3c(cc2n1)OCO3 [2-Hydroxymethyl-6,7-methylenedioxy-4-(3,4-methylenedioxyphenyl)quinazoline]
3.2 µM | CC(C)n1c(=O)nc(-c2ccc3c(c2)OCCO3)c2cc3oc(=O)n(C)c3cc21 [1-Isopropyl-4-(3,4-ethylenedioxyphenyl)-8-methyl-7-oxo-oxazol[5.4-g]quinazolin-2(1H)-one]
3 µM | CC(C)n1c(=O)nc(-c2ccc3c(c2)OCO3)c2cc3oc(=O)n(Cc4ccccc4)c3cc21 [1-Isopropyl-4-(3,4-methylenedioxyphenyl)-8-benzyl-7-oxo-oxazol[5,4-g]quinazolin-2(1H)-one]
12 µM | c1cc2c(cc1-c1nc(CN3CCNCC3)nc3cc4c(cc13)OCO4)OCO2 [6,7-Methylenedioxy-2-(piperazin-1-yl)methyl-4-(3,4-methylenedioxyphenyl)quinazoline]
6 µM | CCOc1nc(-c2ccc3c(c2)OCO3)c2cc3c(cc2n1)OCO3 [2-Ethoxy-6,7-methylenedioxy-4-(3,4-methylenedioxyphenyl)-quinazoline]

IC50 | Compound
6 µM | CC(C)(O)c1nc(-c2ccc3c(c2)OCO3)c2cc3c(cc2n1)OCO3 [6,7-methylenedioxy-4-(3,4-methylenedioxyphenyl)-2-(1-hydroxy-1-methylethyl)quinazoline]
1 µM | NCCn1c(=O)nc(-c2ccc3c(c2)OCO3)c2cc3c(cc21)OCO3 [1-(2-aminoethyl)-6,7-methylenedioxy-4-(3,4-methylenedioxyphenyl)quinazoline-2(1H)-one]
7 µM | CC(C)n1c(=O)nc(-c2ccc3c(c2)OCO3)c2cc3c(cc21)OCCO3 [6,7-Ethylenedioxy-1-isopropyl-4-(3,4-methylenedioxyphenyl)quinazolin-2(1H)-one]
10 µM | c1cn(CCOc2nc(-c3ccc4c(c3)OCO4)c3cc4c(cc3n2)OCO4)cn1 [2-[2-(Imidazol-1-yl)ethoxy]-6,7-methylenedioxy-4-(3,4-methylenedioxyphenyl)quinazoline]
4.7 µM | CCn1c(=O)nc(-c2cc3c(cc2[N+](=O)[O-])OCO3)c2cc3c(cc21)OCO3 [1-Ethyl-6,7-methylenedioxy-4-(3,4-methylenedioxy-6-nitrophenyl)quinazolin-2(1H)-one]
4.5 µM | Cc1nc(-c2ccc3c(c2)OCO3)c2cc3c(cc2n1)OCO3 [6,7-Methylenedioxy-4-(3,4-methylenedioxyphenyl)-2-methylquinazoline]
13 µM | COCCn1c(=O)nc(-c2ccc3c(c2)OCO3)c2cc3c(cc21)OCO3 [1-[(2-Methoxy)ethyl]-6,7-methylenedioxy-4-(3,4-methylenedioxyphenyl)quinazoline-2-one]
11 µM | ClCCCc1nc(-c2ccc3c(c2)OCO3)c2cc3c(cc2n1)OCO3 [2-(3-Chloropropyl)-4-(3,4-methylenedioxyphenyl)-6,7-methylenedioxyquinazoline]
7 µM | CCn1c(=O)nc(-c2cc3c(cc2N)OCO3)c2cc3c(cc21)OCO3 [1-Ethyl-6,7-methylenedioxy-4-(2-amino-4,5-methylenedioxyphenyl)quinazolin-2(1H)-one]
4.3 µM | CCc1nc(-c2ccc3c(c2)OCO3)c2cc3c(cc2n1)OCO3 [2-Ethyl-4-(3,4-methylenedioxyphenyl)-6,7-methylenedioxyquinazoline]
3 µM | CCn1nc(-c2ccc3c(c2)OCO3)c2cc3c(cc2c1=O)OCO3 [2-Ethyl-4-(3,4-methylenedioxyphenyl)-6,7-methylenedioxy-1(2H) -phthalazinone]
10 µM | CN(C)Cc1nc2cc3c(cc2c(-c2ccc4c(c2)OCO4)[n+]1[O-])OCO3 [2-Dimethylaminomethyl-6,7-methylenedioxy-4-(3,4-methylenedioxyphenyl)quinazoline-3-oxide]
12 µM | NCCCc1nc(-c2ccc3c(c2)OCO3)c2cc3c(cc2n1)OCO3 [2-(3-aminopropyl)-6,7-methylenedioxy-4-(3,4-methylenedioxyphenyl)quinazoline]
12 µM | CN(C)CCCCCOc1nc(-c2ccc3c(c2)OCO3)c2cc3c(cc2n1)OCO3 [2-[(3-Dimethylaminopropyl)ethoxy]-6,7-methylenedioxy-4-(3,4-methylenedioxyphenyl)quinazoline]
8 µM | CN(C)CCc1nc(-c2ccc3c(c2)OCO3)c2cc3c(cc2n1)OCO3 [2-(2-Dimethylaminoethyl)-4-(3,4-methylenedioxyphenyl)-6,7-methylenedioxyquinazoline]
3 µM | CCOC(=O)CCn1nc(-c2ccc3c(c2)OCO3)c2cc3c(cc2c1=O)OCO3 [2-[2(ethoxycarbonyl)ethyl]-4-(3,4-methylenedioxyphenyl)-6,7-methylenedioxy-1(2H)-phthalazinone]

Compound | IC50
1-[2-(N-methylpyrrolidin-1-yl)ethyl]-6,7-methylenedioxy-4-(3,4-methylenedioxyphenyl)quinazoline-2-one | 4 µM
O=c1nc(-c2ccc3c(c2)OCO3)c2cc3c(cc2n1CCn1ccnc1)OCO3 [1-(Imidazol-1-yl)ethyl-6,7-methylenedioxy-4-(3,4-methylenedioxyphenyl)quinazoline-2-one] | 5 µM
O=c1nc(-c2ccc3c(c2)OCO3)c2cc3c(cc2n1CCN1CCCC1)OCO3 [1-(2-Pyrrolidinylethyl)-6,7-methylenedioxy-4(3,4-methylenedioxyphenyl)quinazolin-2(1H)-one] | 1.6 µM
O=c1nc(-c2ccc3c(c2)OCO3)c2cc3c(cc2n1CCN1CCCCC1)OCO3 [1-(Piperidin-1-yl)ethyl-6,7-methylenedioxy-4-(3,4-methylenedioxyphenyl)quinazoline-2-one] | 4 µM

Same assay, conditions: read-out: AMPA IC50; inhibiting or modulating AMPA receptors expressed in oocyte

Compound | IC50
ClCCc1nc(-c2ccc3c(c2)OCO3)c2cc3c(cc2n1)OCO3 [2-(2-Chloroethyl)-6,7-methylenedioxy-4-(3,4-methylenedioxyphenyl)quinazoline] | 3 µM

System: not given
Test: not given
Conditions: not given

melting point | Compound
225 to 230 °C | c1ccc(-c2nc(-c3ccc4c(c3)OCO4)c3cc4c(cc3n2)OCO4)cc1
144 to 147 °C | CC(=O)OCc1nc(-c2ccc3c(c2)OCO3)c2cc3c(cc2n1)OCO3
> 300 °C | O=c1nc(-c2ccc3c(c2)OCO3)c2cc3c(cc2[nH]1)OCO3
175 to 182 °C | c1cc2c(cc1-c1nc(OCC3CC3)nc3cc4c(cc13)OCO4)OCO2
351 to 354 °C | O=c1nc(-c2ccccc2)c2cc3c(cc2[nH]1)OCO3
160 to 165 °C | CC(CN(C)C)On1c(=O)nc(-c2ccc3c(c2)OCO3)c2cc3c(cc21)OCO3 (centres unmarked)
253 to 255 °C | Cn1c(=O)nc(-c2ccccc2)c2cc3c(cc21)OCO3
172 to 175 °C | CC(CN(C)C)Oc1nc(-c2ccc3c(c2)OCO3)c2cc3c(cc2n1)OCO3 (centres unmarked)
182 to 185 °C | c1cn(Cc2nc(-c3ccc4c(c3)OCO4)c3cc4c(cc3n2)OCO4)cn1
